Laboratory results published in patent EP0554004A2, “Cephem compounds and antibacterial agents” (KATAYAMA SEIYAKUSYO CO. Ltd., priority 1992, dated 1993).

Key:
E. cloacae ATCC13407 = assay: MIC against standard strains (Test Example 3); assay type: cell-based; conditions: Enterobacter cloacae; E. cloacae ATCC13407 (Test Example 3); read-out: MIC
Procedure: (§1) By using each test strain cultured overnight at 37°C in a Muller-Hinton broth, there was prepared a bacterial solution with a bacterial cell population of 1 x 10^6 CFU/mi of the same bouillon. The bacterial solution was inoculated into the Muller-Hinton agar media each containing respectively one test agent and, after overnight incubation at 37°C, the minimum concentration that inhibited growth of the bacteria was determined and shown as MIC also in Table 1.
(§2) The minimum growth inhibitory concentration was determined for each of the 21 standard strains shown in Table 3, according to the same method as used in Test Example 1.
(§3) In the test, FMOX (flomoxef), CTM (cefotiam) and CEZ (cefazolin) were used as control agents.

P. mirabilis IFO3849 = assay: MIC against standard strains (Test Example 3); assay type: cell-based; conditions: Proteus mirabilis; P. mirabilis IFO3849 (Test Example 3); read-out: MIC
Procedure: as §1, §2, §3

S. aureus 195 = assay: MIC against standard strains (Test Example 3); assay type: cell-based; conditions: Staphylococcus aureus; S. aureus 195 (MRSA) (Test Example 3); read-out: MIC
Procedure: as §1, §2, §3

S. aureus Smith = assay: MIC against standard strains (Test Example 3); assay type: cell-based; conditions: Staphylococcus aureus; S. aureus Smith (Test Example 3); read-out: MIC
Procedure: as §1, §2, §3

K. pneumoniae IFO3317 = assay: MIC against standard strains (Test Example 3); assay type: cell-based; conditions: Klebsiella pneumoniae; K. pneumoniae IFO3317 (Test Example 3); read-out: MIC
Procedure: as §1, §2, §3

E. coli CSH2 (RE45) = assay: MIC against standard strains (Test Example 3); assay type: cell-based; conditions: Escherichia coli
Procedure: as §1, §2, §3

S. marcescens IAM1184 = assay: MIC against standard strains (Test Example 3); assay type: cell-based; conditions: Serratia marcescens; S. marcescens IAM1184 (Test Example 3); read-out: MIC
Procedure: as §1, §2, §3

M. Morganii IFO3848 = assay: MIC against standard strains (Test Example 3); assay type: cell-based; conditions: Morganella morganii; M. Morganii IFO3848 (Test Example 3); read-out: MIC
Procedure: as §1, §2, §3

K. pneumoniae No. 42 = assay: MIC against standard strains (Test Example 3); assay type: cell-based; conditions: Klebsiella pneumoniae; K. pneumoniae No. 42 (Test Example 3); read-out: MIC
Procedure: as §1, §2, §3

A. calcoaceticos T59 = assay: MIC against standard strains (Test Example 3); assay type: cell-based; conditions: A. calcoaceticos T59 (Test Example 3); read-out: MIC
Procedure: as §1, §2, §3

E. coli CSH2 (RK1) = assay: MIC against standard strains (Test Example 3); assay type: cell-based; conditions: Escherichia coli
Procedure: as §1, §2, §3

S. aureus 209p JC-1 = assay: MIC against standard strains (Test Example 3); assay type: cell-based; conditions: Staphylococcus aureus; S. aureus 209p JC-1 (Test Example 3); read-out: MIC
Procedure: as §1, §2, §3

S. epidemidis IAM1296 = assay: MIC against standard strains (Test Example 3); assay type: cell-based; conditions: S. epidemidis IAM1296 (Test Example 3); read-out: MIC
Procedure: as §1, §2, §3

E. coli NIHJ JC-2 = assay: MIC against standard strains (Test Example 3); assay type: cell-based; conditions: Escherichia coli, NIHJJC2; E. coli NIHJ JC-2 (Test Example 3); read-out: MIC
Procedure: as §1, §2, §3

B. subtilis ATCC6633 = assay: MIC against standard strains (Test Example 3); assay type: cell-based; conditions: Bacillus subtilis; B. subtilis ATCC6633 (Test Example 3); read-out: MIC
Procedure: as §1, §2, §3

C. freundii ATCC8090 = assay: MIC against standard strains (Test Example 3); assay type: cell-based; conditions: Citrobacter freundii; C. freundii ATCC8090 (Test Example 3); read-out: MIC
Procedure: as §1, §2, §3

A. faecalis ATCC3750 = assay: MIC against standard strains (Test Example 3); assay type: cell-based; conditions: Alcaligenes faecalis; A. faecalis ATCC3750 (Test Example 3); read-out: MIC
Procedure: as §1, §2, §3

S. aureus 167 = assay: MIC against standard strains (Test Example 3); assay type: cell-based; conditions: Staphylococcus aureus; S. aureus 167 (MRSA) (Test Example 3); read-out: MIC
Procedure: as §1, §2, §3

M. luteus ATCC 9341 = assay: MIC against standard strains (Test Example 3); assay type: cell-based; conditions: Micrococcus luteus, ATCC9341; M. luteus ATCC 9341 (Test Example 3); read-out: MIC
Procedure: as §1, §2, §3

P. aeruginosa NCTC10490 = assay: MIC against standard strains (Test Example 3); assay type: cell-based; conditions: Pseudomonas aeruginosa; P. aeruginosa NCTC10490 (Test Example 3); read-out: MIC
Procedure: as §1, §2, §3

P. vulugaris OX-19 = assay: MIC against standard strains (Test Example 3); assay type: cell-based; conditions: P. vulugaris OX-19 (Test Example 3); read-out: MIC
Procedure: as §1, §2, §3

clinically isolated MRSA = assay: Antibacterial potency against clinically isolated MRSA (Test Example 4); assay type: cell-based, methicillin-resistant Staphylococcus aureus; conditions: Staphylococcus aureus, 52 strains of clinically isolated MRSA; for MIC50: concentration inhibiting growth of 50% of the strains (Test Example 4), read-out: MIC50; for MIC90: concentration inhibiting growth of 90% of the strains (Test Example 4), read-out: MIC90
Procedure: 52 strains of clinically isolated MRSA were used, and MIC was determined for each of the strains according to the standard method of the Japan Chemotherapical Society as in Test Example 1. The minimum growth inhibitory concentration which inhibited growth of 50% of the strains tested was expressed as MIC50 (µg/ml), and the minimum growth inhibitory concentration which inhibited growth of 90% of the strains was expressed as MIC90 (µg/ml).
MIC 50 and MIC 90 were determined for each of the 52 strains of clinically isolated MRSA according to the same method as used in Test Example 2.
VCM (vancomycin) was used as control agent.

Row | SMILES | MIC (E. cloacae ATCC13407) [µg/mL] | MIC (P. mirabilis IFO3849) [µg/mL] | MIC (S. aureus 195) [µg/mL] | MIC (S. aureus Smith) [µg/mL] | MIC (K. pneumoniae IFO3317) [µg/mL] | MIC (E. coli CSH2 (RE45)) [µg/mL] | MIC (S. marcescens IAM1184) [µg/mL] | MIC (M. Morganii IFO3848) [µg/mL] | MIC (K. pneumoniae No. 42) [µg/mL] | MIC (A. calcoaceticos T59) [µg/mL] | MIC (E. coli CSH2 (RK1)) [µg/mL] | MIC (S. aureus 209p JC-1) [µg/mL] | MIC (S. epidemidis IAM1296) [µg/mL] | MIC (E. coli NIHJ JC-2) [µg/mL] | MIC (B. subtilis ATCC6633) [µg/mL] | MIC (C. freundii ATCC8090) [µg/mL] | MIC (A. faecalis ATCC3750) [µg/mL] | MIC (S. aureus 167) [µg/mL] | MIC (M. luteus ATCC 9341) [µg/mL] | MIC (P. aeruginosa NCTC10490) [µg/mL] | other results
1 | CNc1nc(-c2cc[n+](CC3=C(C(=O)[O-])N4C(=O)[C@@H](NC(=O)/C(=N\O)c5csc(N)n5)[C@H]4SC3)cc2)cs1 [Compound (12), 7β-[2-(2-aminothiazol-4-yl)-2-syn-hydroxyiminoacetamido]-3-[[4-(2-methylaminothiazol-4-yl)-1-pyridinio]methyl]-3-cephem-4-carboxylic acid chloride] | 1.56 | 0.78 | 3.13 | 0.39 | 0.1 | 0.2 | 0.78 | 0.05 | 0.78 | 50 | 0.39 | 0.39 | 0.2 | 0.2 | 0.2 | 0.39 | 1.56 | 5.25 | 0.05 | 12.5 | MIC (P. vulugaris OX-19): 0.1 µg/mL; MIC50 (clinically isolated MRSA): 1.86 µg/mL; MIC90 (clinically isolated MRSA): 4.61 µg/mL
2 | NC(=O)Cc1ccc[n+](CC2=C(C(=O)[O-])N3C(=O)[C@@H](NC(=O)/C(=N\O)c4csc(N)n4)[C@H]3SC2)c1 [Compound (7), 7β-[2-(2-aminothiazol-4-yl)-2-syn-hydroxyiminoacetamido]-3-[(3-carbamoylmethyl-1-pyridinio)methyl]-3-cephem-4-carboxylic acid chloride] | 0.39 | 0.2 | 3.13 | 0.39 | 0.2 | 0.2 | 0.2 | 0.1 | 0.39 | 3.13 | 0.78 | 0.2 | 0.1 | 0.2 | 0.39 | 0.2 | 1.56 | 12.5 | 0.1 | 1.56 | MIC (P. vulugaris OX-19): 0.39 µg/mL; MIC50 (clinically isolated MRSA): 2.04 µg/mL; MIC90 (clinically isolated MRSA): 5.44 µg/mL
